Results: article PMC2950628 (Journal of medicinal chemistry, 2008)

Legend:
[1] = Solubility in D2O confirmed by NMR; assay type: physicochemical
PDE4 = conditions: Table 5, external test set s1–s9 from literature ref 19; cited from earlier work

Compound	actual pIC50 (PDE4)	other results
CCCCC(=O)c1ccc(OC)c(OC2CCNCC2)c1 [5i, 1-[4-Methoxy-3-(piperidin-4-yloxy)phenyl]pentan-1-one]	–	solubility [1]: ≤ 800 µM
CCCC(=O)c1ccc(OC(F)F)c(Oc2ccccn2)c1 [5zi, 1-[4-Difluoromethoxy-3-(pyridin-2-yloxy)phenyl]butan-1-one]	–	solubility / behaviour in NMR sample ([1]; NMR study conditions): solubility and nonspecific binding problems
COc1ccc(C(=O)Nc2ccccc2F)cc1OC1CCCC1 [s1]	4.97	–
COc1ccc(C(=O)Nc2ccccc2C(F)(F)F)cc1OC1CCCC1 [s2]	5.51	–
COc1ccc(C(=O)Nc2c(Cl)cccc2Cl)cc1OC1CCCC1 [s3]	7.55	–
COc1ccc(C(=O)Nc2c(F)cccc2F)cc1O [s4]	4.43	–
COc1ccc(C(=O)Nc2c(F)cccc2F)cc1OC1CCCCC1 [s5]	6.40	–
COc1ccc(C(=O)Nc2c(F)cccc2F)cc1OC1CCCC1 [s6]	7.15	–
COc1ccc(C(=O)Nc2ccccc2Cl)cc1OC [s7]	6.19	–
CCCOc1cc(C(=O)Nc2c(F)cccc2F)ccc1OC [s8]	5.80	–
COc1ccc(C(=S)Nc2c(Cl)cccc2Cl)cc1OC1CCCC1 [s9]	6.70	–
